# Measurements: patent US11383241B2, “Mechano-node pore sensing” (The Regents of the University of California, priority 2017, dated 2022)
# Columns and labels:
# Type in all cases: cell-based, human
# MCF-10A cells = experiment: mechano-NPS mechanical phenotyping of Latrunculin-treated MCF-10A cells; conditions: for cellular deformation in the transverse direction (δdeform) compared to control: one hour at 37° C.; for cellular deformation in the transverse direction (δdeform) compared to control / wCDI (whole cell deformability index) compared to untreated control cells: strain εavg˜0.3; for treated cells that do not recover within the 40 ms time window (prolonged recovery): ΔTr>40 ms, untreated 9.7%
# Text: (§1) Platform design, including geometry and sizing, may be configured and adapted to target indications, such as cell type and size range. In this example, the platform comprises of a 30 μm-high microfluidic channel embedded in a polydimethylsiloxane (PDMS) mold bonded to a glass substrate with pre-defined platinum (Pt) electrodes and gold (Au) contact pads (FIG. 1a). The central part of the channel, which we refer to as the “contraction channel”, is long (2055 μm) and narrow (10 or 12 μm-wide) and flanked on either side by a series of nodes and pores that are 85 μm and 25 μm wide, respectively (FIG. 1a, inset). The length of the contraction channel was chosen to provide sufficient time (˜30 ms) over which a cell experiences constant applied strain. The node and pore dimensions were chosen for sufficient signal-to noise ratios. Given the flexibility and ease of device design and fabrication, different contraction channel lengths and node and pore dimensions could be employed. Filters that are 25 μm in width (the width chosen based on the size range of cells measured in these studies, ˜15-20 μm in diameter) are included at the entrance of the microfluidic channel in order to remove cellular clusters that may otherwise clog the device. Applying a constant DC voltage (1 V) across the channel, we employ a four-terminal measurement technique^37-40 to measure the current pulses caused by cells transiting across the microfluidic channel when a non-pulsatile pressure of ˜21 kPa (determined by a commercial pressure gauge, SSI Technologies) is utilized (FIG. 1b and FIG. 2). After low-pass filtering all current versus time data, we employ custom-written software to extract both the magnitude and duration of each current sub-pulse (ΔInp, ΔIc, ΔTcont, and ΔTr in FIG. 1b; FIG. 3).
# (§2) We disrupted actin polymerization with Latrunculin A and B (LatA and LatB, Enzo Life Sciences)^50. Prior to deformability measurements, MCF-7 and MCF-10A cells were incubated with 2.5 or 5 μg/mL LatA or LatB in each cell's respective growth medium for one hour at 37° C. and 5% CO2^29, 51, 52. Cells were then released from culture flasks with 0.25% trypsin/EDTA, rinsed once with PBS, centrifuged at […], and re-suspended in PBS at a concentration of ˜100,000 cells/mL. […] They were then permeabilized with 0.1% Triton-X 100 (Sigma-Aldrich) in PBS for 5 min. Cell nuclei and F-actin were then counter-stained with 4′,6-diamidino-2-phenylindole (DAPI, Sigma-Aldrich, 10236276001) and rhodamine phalloidin (Thermo Fisher Scientific, R415), respectively, per manufacturer's protocol, and then imaged with a Zeiss LSM710 confocal microscope.
# (§3) To determine De, we measure polystyrene microspheres of known size with the microfluidic channel. Using the values of ΔI/I arising from the microspheres, along with the known values of L and d (the size of the microspheres in this instance), we can numerically solve for De in Equation (5). Once De is known, we can subsequently determine Dcell of a screened cell by numerically solving for d in Equation (5) using the obtained values of ΔInp/I. We can also determine the volume of the deformed cell, Vdeform, by the relationship^39, 57, 58, ΔIc/I˜Vdeform/Vcontraction, where Vcontraction is the volume of the contraction channel. To calculate Ldeform, we assume the cell undergoes an isometric deformation in the direction of both the channel's longitudinal axis and channel height, resulting in an oblate-spheroid shape. From the relationship between the volume and major radius of the oblate spheroid, Vdeform=πwcLdeform^2/6 where wc is the contraction-channel width, we can determine Ldeform from ΔIc/I. We quantify the transverse deformation of the cell, δdeform=Ldeform/Dcell, as it transits the contraction channel.
# (§4) As a cell traverses through each section of the channel, the duration of the resulting sub-pulse produced by a cell corresponds to the cell's transit time (ΔT) through that part of the channel. […]
# F-actin filaments = experiment: F-actin staining (rhodamine phalloidin) and confocal microscopy of treated cells; conditions: MCF-7 and MCF-10A cells, after one hour incubation; more so with Lat-A than with Lat-B
# Experimental: as §2
# MCF-7 cells = experiment: mechano-NPS mechanical phenotyping of Latrunculin-treated MCF-7 cells; conditions: for cellular deformation in the transverse direction (δdeform) compared to control: one hour at 37° C.; for cellular deformation in the transverse direction (δdeform) compared to control / wCDI (whole cell deformability index) compared to untreated control cells: strain εavg˜0.3; for treated cells that instantaneously recover from deformation: ΔTr˜0 ms, untreated 38.3%
# Text: as §1, §2, §3, §4
SMILES,change in wCDI as a function of treatment concentration (MCF-10A cells; 2.5 or 5 μg/mL),cellular deformation in the transverse direction (δdeform) compared to control (MCF-10A cells; 2.5 or 5 μg/mL),wCDI (whole cell deformability index) compared to untreated control cells (MCF-10A cells),treated cells that do not recover within the 40 ms time window (prolonged recovery) (MCF-10A cells),F-actin filaments by staining and confocal microscopy (F-actin filaments),change in wCDI as a function of treatment concentration (MCF-7 cells; 2.5 or 5 μg/mL),cellular deformation in the transverse direction (δdeform) compared to control (MCF-7 cells; 2.5 or 5 μg/mL),wCDI (whole cell deformability index) compared to untreated control cells (MCF-7 cells),treated cells that instantaneously recover from deformation (MCF-7 cells)
"C/C1=C/C(=O)O[C@@H]2C[C@@H](CC[C@H](C)/C=C\C=C\CC1)O[C@@](O)([C@@H]1CSC(=O)N1)C2 [LatA, Latrunculin A]",increased with concentration,significantly reduced,increased,66.7%,inhibited,increased with concentration,significantly reduced,increased,8.1%
"C/C1=C/C(=O)O[C@@H]2C[C@@H](CC[C@H](C)/C=C\CC1)O[C@@](O)([C@@H]1CSC(=O)N1)C2 [LatB, Latrunculin B]",–,significantly reduced,no detectable change,41.4%,inhibited,–,significantly reduced,increased,24.2%
